Experimental data reported in ChEMBL document CHEMBL1201862, “PubChem BioAssay data set” (2004).
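Where inhibition never reached the appropriate level, the endpoint shown equals the highest concentration tested. Otherwise, values were interpolated linearly from a five-concentration, 48-hour dose response in 96-well plates. At the GI50, growth is halved.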 The source made the active and inactive calls. Rule as the data show it: active = GI50 up to about 1.1 µM and inactive = higher.

How the values were obtained:
Assay in all cases: inhibition of tumour cell growth, NCI panel, 48 h
[1] = test system: CAKI-1
[2] = test system: A549
[3] = test system: SK-MEL-28
[4] = test system: SW-620
[5] = test system: SK-OV-3
[6] = test system: COLO 205
[7] = test system: NCI-H460
[8] = test system: TK-10
[9] = test system: Malme-3M
[10] = test system: SF-268
[11] = test system: RPMI-8226
[12] = test system: SK-MEL-5
[13] = test system: EKVX
[14] = test system: K562
[15] = test system: SK-MEL-2
[16] = test system: OVCAR-3
[17] = test system: KM12
[18] = test system: HT-29
[19] = test system: UACC-257
[20] = test system: A498

Measured: GI50

CCN(CC)C(=O)c1cc(OC(C)C)ccc1-c1c(C)cc(OC(C)C)c(OC)c1OC
inactive: [1] 84.5 µM | [2] 48.6 µM | [3] > 100 µM | [4] 98.4 µM | [5] > 100 µM | [6] 63.7 µM | [7] 36.1 µM | [8] > 100 µM | [9] 44 µM | [10] > 100 µM | [11] 24.2 µM | [12] 35.6 µM | [13] 60.7 µM | [14] 44.2 µM | [15] 46.7 µM | [16] 71 µM | [17] 57.8 µM | [18] 38 µM

O=C1CN2C(Cl)(Cl)C2(c2ccccc2)c2cc(Cl)ccc2N1CC1CC1 (stereo unspecified)
inactive: [1] 23.3 µM | [3] 17.3 µM | [4] 29.6 µM | [6] 19.9 µM | [7] 16.3 µM | [8] 33.8 µM | [9] 17.3 µM | [10] 29.3 µM | [11] 37.2 µM | [19] 18.9 µM | [12] 20.2 µM | [13] 31.8 µM | [14] 31.5 µM | [15] 17.3 µM | [16] 19.6 µM | [17] 16.6 µM | [18] 17.3 µM

COc1ccc(C(CC(=O)c2ccc(O)cc2)C(C(=O)c2ccc(O)cc2)C(c2ccc(OC)cc2)C2C(=O)NC(=S)NC2=O)cc1 (stereo unspecified)
inactive: [2] 21.9 µM | [3] 16.2 µM | [4] 23.1 µM | [6] 16 µM | [7] 18.1 µM | [8] 29.3 µM | [10] 15.7 µM | [11] 22.6 µM | [19] 17.5 µM | [12] 21.5 µM | [20] 38.9 µM | [14] 30.5 µM | [15] 29.8 µM | [17] 16.6 µM | [18] 27 µM

NC1CCCCC1
inactive: [2] 194 µM | [3] 318 µM | [4] 419 µM | [6] > 56.2 µM | [7] 216 µM | [9] > 562 µM | [10] 508 µM | [11] 369 µM | [19] > 562 µM | [12] 283 µM | [20] > 562 µM | [13] 489 µM | [14] 138 µM | [15] 169 µM | [16] 190 µM | [17] 211 µM | [18] 199 µM

O=C(N/N=C/C=C/c1ccccc1)[C@H](O)[C@@H](O)C(=O)N/N=C/C=C/c1ccccc1
inactive: [2] > 100 µM | [3] > 100 µM | [4] > 100 µM | [5] > 10 µM | [6] > 100 µM | [7] > 100 µM | [8] > 100 µM | [9] > 100 µM | [10] > 100 µM | [11] > 100 µM | [19] > 100 µM | [12] > 100 µM | [20] > 100 µM | [13] > 100 µM | [14] > 100 µM | [15] > 100 µM | [17] > 100 µM

C=CC(=O)NC(O)(C(=O)OCC)C(F)(F)F (stereo unspecified)
inactive: [1] > 100 µM | [2] > 100 µM | [3] > 100 µM | [4] > 100 µM | [5] > 100 µM | [6] > 100 µM | [8] > 100 µM | [9] > 100 µM | [10] > 100 µM | [11] > 100 µM | [19] > 100 µM | [12] > 100 µM | [13] > 100 µM | [14] > 100 µM | [15] > 100 µM | [16] > 100 µM | [17] > 100 µM | [18] > 100 µM

O=C1CCC(c2ccccc2)=NN1c1nsc2ccccc12
inactive: [2] > 100 µM | [3] > 100 µM | [4] > 100 µM | [6] > 100 µM | [7] 47.9 µM | [8] > 100 µM | [10] > 100 µM | [11] 70.1 µM | [19] > 100 µM | [12] > 100 µM | [13] 82.6 µM | [14] 74 µM | [15] > 100 µM | [16] 83.8 µM | [17] > 100 µM | [18] > 100 µM

CC(SC(=S)N1CCOCC1)C(=O)Nc1nnc(-c2ccc(Cl)cc2)o1 (stereo unspecified)
inactive: [2] 34.5 µM | [3] > 100 µM | [4] 42.6 µM | [5] 67.3 µM | [6] 38.4 µM | [7] 35.2 µM | [8] 79.8 µM | [9] > 100 µM | [10] 44.3 µM | [11] 23.2 µM | [19] 46.1 µM | [12] 31.6 µM | [20] 60.5 µM | [15] 31.8 µM | [16] 25.8 µM | [18] 36.9 µM

Cc1cc2c(ccc[n+]2[O-])[n+]([O-])c1
inactive: [1] > 100 µM | [2] > 100 µM | [3] > 100 µM | [4] > 100 µM | [5] > 100 µM | [6] > 100 µM | [7] > 100 µM | [8] > 100 µM | [9] > 100 µM | [10] > 100 µM | [11] > 100 µM | [19] > 100 µM | [12] > 100 µM | [13] > 100 µM | [14] > 100 µM | [15] > 100 µM | [16] > 100 µM | [17] > 100 µM | [18] > 100 µM

COc1cc2ccc(CC(N)=O)cc2cc1OC
inactive: [2] > 100 µM | [3] > 100 µM | [4] > 100 µM | [5] > 100 µM | [6] > 100 µM | [8] > 100 µM | [9] > 100 µM | [10] > 100 µM | [11] > 100 µM | [19] > 100 µM | [12] > 100 µM | [13] > 100 µM | [14] > 100 µM | [15] > 100 µM | [16] > 100 µM | [17] > 100 µM | [18] > 100 µM

COc1ccc(/C=N/n2c(C)nc3c(sc(=S)n3-c3ccccc3)c2=O)cc1
inactive: [2] > 100 µM | [3] 43.7 µM | [4] > 100 µM | [5] > 100 µM | [6] > 100 µM | [7] 31.6 µM | [8] > 100 µM | [10] 44.8 µM | [11] 27 µM | [19] 62.7 µM | [12] > 100 µM | [20] 36 µM | [14] 25.6 µM | [16] 45.5 µM | [17] > 100 µM | [18] 37.2 µM

Clc1ccc(-c2nnc(-c3nsc4ccccc34)o2)cc1
inactive: [2] 40.6 µM | [3] 33.3 µM | [4] 50.5 µM | [6] 71.8 µM | [7] 23.3 µM | [8] 25.2 µM | [10] 18.5 µM | [11] 24.2 µM | [19] > 100 µM | [12] 31.3 µM | [13] 14.2 µM | [15] 28.5 µM | [16] 14 µM | [17] 51.5 µM | [18] 25.9 µM
